Results reported in ChEMBL document CHEMBL3603831, “Discovery of Potent 17β-Hydroxywithanolides for Castration-Resistant Prostate Cancer by High-Throughput Screening of a Natural Products Library for Androgen-Induced Gene Expression Inhibitors” (J Med Chem, 2015).
The source made the active and inactive calls. The calls are words filed in the database; no cut-off is given here.

Assays:
[1] = system: PC-3; experiment: Cytotoxicity against human PC3 cells assessed as inhibition of cell proliferation/survival after 72 hrs by resazurin dye reduction assay; type: functional, cell-based; settings: PC-3, 72 h
[2] = system: MCF7; experiment: Cytotoxicity against human MCF7 cells assessed as inhibition of cell proliferation/survival after 72 hrs by resazurin dye reduction assay; type: functional, cell-based; settings: MCF7, 72 h
[3] = system: NCI-H460; experiment: Cytotoxicity against human NCI-H460 cells assessed as inhibition of cell proliferation/survival after 72 hrs by resazurin dye reduction assay; type: functional, cell-based; settings: NCI-H460, 72 h
[4] = system: HFF; experiment: Cytotoxicity against HFF assessed as inhibition of cell proliferation/survival after 72 hrs by resazurin dye reduction assay; type: cell-based; settings: Homo sapiens
[5] = system: SF-268; experiment: Cytotoxicity against human SF268 cells assessed as inhibition of cell proliferation/survival after 72 hrs by resazurin dye reduction assay; type: functional, cell-based; settings: SF-268, 72 h
[6] = system: LNCaP; experiment: Cytotoxicity against human LNCAP cells assessed as inhibition of cell proliferation/survival after 72 hrs by resazurin dye reduction assay; type: functional, cell-based
[7] = target: T1, Androgen receptor (Homo sapiens, UniProt P10275); experiment: Inhibition of androgen receptor in human LNCAP cells assessed as inhibition of DHT-induced KLK2 gene expression by Array Plate assay; type: cell-based
T1 sequence (P10275 whole entry): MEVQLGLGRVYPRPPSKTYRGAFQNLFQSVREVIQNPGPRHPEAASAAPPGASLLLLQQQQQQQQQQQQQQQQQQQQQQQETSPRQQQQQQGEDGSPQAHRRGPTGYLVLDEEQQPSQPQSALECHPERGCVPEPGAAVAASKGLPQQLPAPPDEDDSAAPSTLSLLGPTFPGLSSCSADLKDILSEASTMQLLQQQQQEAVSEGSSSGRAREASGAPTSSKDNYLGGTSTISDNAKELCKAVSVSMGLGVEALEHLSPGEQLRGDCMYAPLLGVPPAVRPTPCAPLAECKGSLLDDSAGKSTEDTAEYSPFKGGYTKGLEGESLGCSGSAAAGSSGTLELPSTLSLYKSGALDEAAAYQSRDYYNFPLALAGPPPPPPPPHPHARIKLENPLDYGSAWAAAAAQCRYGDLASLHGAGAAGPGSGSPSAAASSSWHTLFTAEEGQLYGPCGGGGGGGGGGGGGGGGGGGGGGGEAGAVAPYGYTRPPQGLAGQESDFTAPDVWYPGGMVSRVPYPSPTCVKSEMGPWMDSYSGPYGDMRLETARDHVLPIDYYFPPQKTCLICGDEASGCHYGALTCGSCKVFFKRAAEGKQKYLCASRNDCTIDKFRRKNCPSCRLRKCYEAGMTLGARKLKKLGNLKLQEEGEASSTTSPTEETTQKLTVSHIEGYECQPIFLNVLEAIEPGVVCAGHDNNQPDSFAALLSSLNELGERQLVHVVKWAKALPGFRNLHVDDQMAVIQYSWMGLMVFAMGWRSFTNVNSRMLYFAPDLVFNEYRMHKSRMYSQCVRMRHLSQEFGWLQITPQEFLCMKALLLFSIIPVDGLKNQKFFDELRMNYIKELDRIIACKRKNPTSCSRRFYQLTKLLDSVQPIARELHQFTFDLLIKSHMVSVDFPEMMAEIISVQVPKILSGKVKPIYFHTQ

[8] = target: T1, Androgen receptor; experiment: Inhibition of androgen receptor in human LNCAP cells assessed as inhibition of DHT-induced SPDEF gene expression by Array Plate assay; type: cell-based
[9] = target: T1, Androgen receptor; experiment: Inhibition of androgen receptor in human LNCAP cells assessed as inhibition of DHT-induced KLK3 gene expression by Array Plate assay; type: cell-based
[10] = Toxicity in SCID mouse assessed as change in body weight measured every 3 to 5 days up to 18 days; type: organism-based; settings: in vivo
[11] = system: PC-3; experiment: Antitumor activity against human PC3 cells xenografted in SCID mouse assessed as tumor growth inhibition at 50 mg/kg, ip qd administered for 5 days followed by 2 days rest and again dose repetition up to 30 days measured after day 30 post dose relative to vehicle-treated control; type: functional; settings: PC-3, ip, read-out: TGI
[12] = target: T2, Androgen receptor (Homo sapiens) (UniProt P10275); experiment: Competitive inhibition of androgen binding to androgen receptor (unknown origin) by invitrogen polar screen assay
T2 sequence (whole entry): T1 sequence (P10275 whole entry)

[13] = system: PC-3; experiment: Antitumor activity against human PC3 cells xenografted in SCID mouse assessed as tumor growth inhibition at 12 mg/kg, iv administered for five times per week up to two weeks measured twice per week; type: functional, organism-based

With CC(=O)OC[C@]12CC[C@H]3[C@@H](C[C@@H]4O[C@@]45CC=CC(=O)[C@]35C)[C@]1(O)CC[C@@]2(O)[C@@](C)(O)[C@H]1CC(C)=C(C)C(=O)O1 the IC50 [1] was 1200 nM, the IC50 [2] was 1200 nM and the IC50 [3] was 2100 nM. For the same compound, the IC50 [4] was greater than 12000 nM, the IC50 [5] was greater than 5000 nM and the IC50 [6] was 320 nM.
CC1=C(CO)C(=O)O[C@@H]([C@@H](C)[C@H]2CC[C@H]3[C@@H]4C[C@H]5O[C@]56[C@@H](O)C=CC(=O)[C@]6(C)[C@H]4CC[C@]23C)C1 [WITHAFERIN A] gave an IC50 [1] of 410 nM, an IC50 [2] of 570 nM and an IC50 [3] of less than 400 nM. It also gave an IC50 [4] greater than 6800 nM, an IC50 [5] of less than 400 nM and an IC50 [6] of 870 nM.
With CC(=O)OC[C@]12CC[C@H]3[C@@H](CC=C4C=CCC(=O)[C@@]43C)[C@]1(O)CC[C@@]2(O)[C@@](C)(O)[C@H]1CC(C)=C(C)C(=O)O1 the IC50 [7] was 2400 nM, the IC50 [8] was 3280 nM and the IC50 [1] was 3100 nM. For the same compound, the IC50 [2] was greater than 5000 nM, the IC50 [9] was 3520 nM and the IC50 [3] was 3900 nM. The IC50 [4] was greater than 3100 nM, the IC50 [5] was greater than 5000 nM and the IC50 [6] was 1100 nM.
CC(=O)OC[C@]12CC[C@H]3[C@@H](CC=C4CC=CC(=O)[C@@]43C)[C@]1(O)CC[C@@]2(O)[C@@](C)(O)[C@H]1CC(C)=C(C)C(=O)O1 gave an IC50 [7] of 580 nM, an MTD at 18 days [10] of 50 mg/kg and an IC50 [8] of 770 nM. The IC50 [1] was 130 nM, the IC50 [2] was 1900 nM and the IC50 [9] was 750 nM. It also gave an IC50 [3] of 1200 nM, an IC50 [4] greater than 3100 nM and an IC50 [5] of 3400 nM. For the same compound, the inhibition in vivo at 50 mg/kg [11] was 66%, the inhibition [12] was “inactive” and the IC50 [6] was 70 nM.
For CC(=O)O[C@@]12CO[C@@H]1C[C@H](O)[C@@]1(C)C(=O)[C@H](O)C3=C(C)[C@@H](OC(=O)[C@H](O)[C@@H](NC(=O)OC(C)(C)C)c4ccccc4)C[C@@](O)([C@@H](OC(=O)c4ccccc4)[C@H]21)C3(C)C, the TGI [13] was “Active”.
